A melting point of 185 to 186 °C was found for Cc1nc(N2CCN(CCCC(F)(F)F)C2=O)sc1-c1cc[nH]n1 [Example 17.1, 1-(4-methyl-5-(1H-pyrazol-3-yl)thiazol-2-yl)-3-(4,4,4-trifluorobutyl)imidazolidin-2-one] in this work.

A melting point of 182 to 184 °C was found for Cc1nc(N2CCN(CC3CC3(F)F)C2=O)sc1C(=O)NCc1cncs1 (centres unmarked) [Example 16.2, 2-(3-((2,2-difluorocyclopropyl)methyl)-2-oxoimidazolidin-1-yl)-4-methyl-N-(thiazol-5-ylmethyl)thiazole-5-carboxamide] in this work.

A melting point of 139 to 140 °C was found for Cc1nc(-n2cnn(CCC3CC3)c2=O)sc1C(=O)NCc1cccnc1 [Example 13, 2-(1-(2-cyclopropylethyl)-5-oxo-1H-1,2,4-triazol-4(5H)-yl)-4-methyl-N-(pyridin-3-ylmethyl)thiazole-5-carboxamide] in this work.

A melting point of 187 to 189 °C was found for Cc1nc(N2CCN(CC3CC3)C2=O)sc1C(=O)NCc1cccnn1 [Example 12.12, 2-(3-(cyclopropylmethyl)-2-oxoimidazolidin-1-yl)-4-methyl-N-(pyridazin-3-ylmethyl)thiazole-5-carboxamide] in this work.

A melting point of 157 to 158 °C was found for Cc1nc(-n2cnn(CC3CC3)c2=O)sc1C(=O)NCc1cocn1 [Example 14.2, 2-(1-(cyclopropylmethyl)-5-oxo-1H-1,2,4-triazol-4(5H)-yl)-4-methyl-N-(oxazol-4-ylmethyl)thiazole-5-carboxamide] in this work.

A melting point of 167 to 168 °C was found for Cc1nc(-n2cnn(CC3CC3)c2=O)sc1C(=O)NCc1cc[nH]n1 [Example 14.1, N-((1H-pyrazol-3-yl)methyl)-2-(1-(cyclopropylmethyl)-5-oxo-1H-1,2,4-triazol-4(5H)-yl)-4-methylthiazole-5-carboxamide] in this work.

A melting point of 232 to 233 °C was found for Cc1nc(-n2cnn(Cc3ccc(F)cc3)c2=O)sc1C(N)=O [Example 1, 2-(1-(4-fluorobenzyl)-5-oxo-1H-1,2,4-triazol-4(5H)-yl)-4-methylthiazole-5-carboxamide] in this work.

A melting point of 180 to 181 °C was found for Cc1nc(-n2cnn(CC3CC3)c2=O)sc1C(N)=O [Example 1.1, 2-[1-(cyclopropylmethyl)-5-oxo-1H-1,2,4-triazol-4(5H)-yl]-4-methylthiazole-5-carboxamide] in this work.

A melting point of 169 to 171 °C was found for Cc1nc(N2CCN(CC3CC3(F)F)C2=O)sc1C(=O)NCc1cccnc1 (centres unmarked) [Example 16, 2-(3-((2,2-difluorocyclopropyl)methyl)-2-oxoimidazolidin-1-yl)-4-methyl-N-(pyridin-3-ylmethyl)thiazole-5-carboxamide] in this work.

A melting point of 70 to 73 °C was found for Cc1nc(N2C(=O)N(Cc3ccc(F)cc3)C[C@H]2C)sc1C(=O)NCc1cncs1 [Example 2.19, (R)-2-(3-(4-fluorobenzyl)-5-methyl-2-oxoimidazolidin-1-yl)-4-methyl-N-(thiazol-5-ylmethyl)thiazole-5-carboxamide] in this work.

A melting point of 158 to 161 °C was found for Cc1nc(N2CCN(CC(C)C)C2=O)sc1C(=O)NCc1ccn(C)n1 [Example 12.22, 2-(3-isobutyl-2-oxoimidazolidin-1-yl)-4-methyl-N-((1-methyl-1H-pyrazol-3-yl)methyl)thiazole-5-carboxamide] in this work.

A melting point of 176 to 177 °C was found for Cc1nc(N2C(=O)N(Cc3ccc(F)cc3)C[C@@H]2C)sc1C(=O)NCc1cnn(C)c1 [Example 2.16, (S)-2-(3-(4-fluorobenzyl)-5-methyl-2-oxoimidazolidin-1-yl)-4-methyl-N-((1-methyl-1H-pyrazol-4-yl)methyl)thiazole-5-carboxamide] in this work.

A melting point of 165 to 167 °C was found for Cc1ncc(CNC(=O)c2sc(N3CCN(CC4CC4)C3=O)nc2C)s1 [Example 12.14, 2-(3-(cyclopropylmethyl)-2-oxoimidazolidin-1-yl)-4-methyl-N-((2-methylthiazol-5-yl)methyl)thiazole-5-carboxamide] in this work.

A melting point of 231 to 233 °C was found for Cc1cc(-c2sc(N3CCN(CC4CC4)C3=O)nc2C)n[nH]1 [Example 6, 1-(cyclopropylmethyl)-3-(4-methyl-5-(5-methyl-1H-pyrazol-3-yl)thiazol-2-yl)imidazolidin-2-one] in this work.

A melting point of 225 to 226 °C was found for Cc1cc(CNC(=O)c2sc(N3CCN(Cc4ccc(F)cc4)C3=O)nc2C)[nH]n1 [Example 2.2, 2-(3-(4-fluorobenzyl)-2-oxoimidazolidin-1-yl)-4-methyl-N-((3-methyl-1H-pyrazol-5-yl)methyl)thiazole-5-carboxamide] in this work.

A melting point of 197 to 198 °C was found for Cc1nc(N2C(=O)N(Cc3ccc(F)cc3)C[C@@H]2C)sc1C(N)=O [Example 1.12, (S)-2-(3-(4-fluorobenzyl)-5-methyl-2-oxoimidazolidin-1-yl)-4-methylthiazole-5-carboxamide] in this work.

A melting point of 273 to 275 °C was found for Cc1nc(-n2cnn(CC3CC3(F)F)c2=O)sc1C(N)=O (centres unmarked) [Example 16.6, 2-(1-((2,2-difluorocyclopropyl)methyl)-5-oxo-1H-1,2,4-triazol-4(5H)-yl)-4-methylthiazole-5-carboxamide] in this work.

A melting point of 62 to 65 °C was found for Cc1nc(N2C[C@H](C)N(Cc3ccc(F)cc3)C2=O)sc1C(=O)NCc1ccc(F)c(F)c1 [Example 2.1, (S)-N-(3,4-difluorobenzyl)-2-(3-(4-fluorobenzyl)-4-methyl-2-oxoimidazolidin-1-yl)-4-methylthiazole-5-carboxamide] in this work.

A melting point of 112 to 113 °C was found for Cc1nc(N2C(=O)N(Cc3ccc(F)cc3)C[C@@H]2C)sc1C(=O)NCc1ccccn1 [Example 2.15, (S)-2-(3-(4-fluorobenzyl)-5-methyl-2-oxoimidazolidin-1-yl)-4-methyl-N-(pyridin-2-ylmethyl)thiazole-5-carboxamide] in this work.

A melting point greater than 200 °C was found for Cc1nc(N2CCN(CC3CC3)C2=O)sc1C(=O)NCc1ccncc1 [Example 12.13, 2-(3-(cyclopropylmethyl)-2-oxoimidazolidin-1-yl)-4-methyl-N-(pyridin-4-ylmethyl)thiazole-5-carboxamide] in this work.

A melting point of 248 to 249 °C was found for Cc1nnc(-c2sc(N3CCN(Cc4ccc(F)cc4)C3=O)nc2C)[nH]1 [Example 3.1, 1-(4-fluorobenzyl)-3-[4-methyl-5-(5-methyl-4H-1,2,4-triazol-3-yl)thiazol-2-yl]imidazolidin-2-one] in this work.

A melting point of 169 to 171 °C was found for Cc1nc(N2CCN(CC3CC3)C2=O)sc1-c1cc[nH]n1 [Example 7, 1-(cyclopropylmethyl)-3-(4-methyl-5-(1H-pyrazol-3-yl)thiazol-2-yl)imidazolidin-2-one] in this work.

A melting point of 131 to 132 °C was found for Cc1cnc(CNC(=O)c2sc(N3C[C@@H](C)N(Cc4cc(F)cc(F)c4)C3=O)nc2C)cn1 [Example 2.13, (R)-2-(3-(3,5-difluorobenzyl)-4-methyl-2-oxoimidazolidin-1-yl)-4-methyl-N-((5-methylpyrazin-2-yl)methyl)thiazole-5-carboxamide] in this work.

A melting point of 178 to 181 °C was found for Cc1nc(N2CCN(CCCC(F)(F)F)C2=O)sc1C(=O)NCc1ccncc1 [Example 12.7, 4-methyl-2-(2-oxo-3-(4,4,4-trifluorobutyl)imidazolidin-1-yl)-N-(pyridin-4-ylmethyl)thiazole-5-carboxamide] in this work.

A melting point of 218 to 221 °C was found for Cc1cc(-c2sc(N3CCN(Cc4ccc(F)cc4)C3=O)nc2C)n[nH]1 [Example 6.2, 1-(4-fluorobenzyl)-3-(4-methyl-5-(5-methyl-1H-pyrazol-3-yl)thiazol-2-yl)imidazolidin-2-one] in this work.

A melting point of 136 to 137 °C was found for Cc1nc(N2C[C@@H](C)N(Cc3ccc(C(F)(F)F)cc3)C2=O)sc1C(=O)NCc1ccccn1 [Example 2.20, (R)-4-methyl-2-(4-methyl-2-oxo-3-(4-(trifluoromethyl)benzyl)imidazolidin-1-yl)-N-(pyridin-2-ylmethyl)thiazole-5-carboxamide] in this work.

A melting point of 212 to 213 °C was found for Cc1nc(N2C[C@@H](C)N(Cc3cc(F)cc(F)c3)C2=O)sc1C(N)=O [Example 1.14, (R)-2-(3-(3,5-difluorobenzyl)-4-methyl-2-oxoimidazolidin-1-yl)-4-methylthiazole-5-carboxamide] in this work.

A melting point of 227 to 230 °C was found for Cc1nc(N2CCN(CC3CC3(F)F)C2=O)sc1-c1cc[nH]n1 (centres unmarked) [Example 17, 1-((2,2-difluorocyclopropyl)methyl)-3-(4-methyl-5-(1H-pyrazol-3-yl)thiazol-2-yl)imidazolidin-2-one] in this work.

A melting point of 185 to 187 °C was found for Cc1nc(N2CCN(CC(C)C)C2=O)sc1C(=O)NCc1ccncc1 [Example 12.17, 2-(3-isobutyl-2-oxoimidazolidin-1-yl)-4-methyl-N-(pyridin-4-ylmethyl)thiazole-5-carboxamide] in this work.

A melting point greater than 200 °C was found for Cc1nc(N2CCN(Cc3ccc(Cl)cc3)C2=O)sc1C(N)=O [Example 1.13, 2-(3-(4-chlorobenzyl)-2-oxoimidazolidin-1-yl)-4-methylthiazole-5-carboxamide] in this work.

A melting point of 169 to 170 °C was found for Cc1nc(-n2cnn(CC3CC3)c2=O)sc1C(=O)NCc1ccncc1 [Example 14, 2-(1-(cyclopropylmethyl)-5-oxo-1H-1,2,4-triazol-4(5H)-yl)-4-methyl-N-(pyridin-4-ylmethyl)thiazole-5-carboxamide] in this work.

A melting point of 159 to 160 °C was found for Cc1nc(N2C[C@@H](C)N(Cc3ccc(F)cc3)C2=O)sc1C(=O)NCc1cc(F)cc(F)c1 [Example 2.10, (R)-N-(3,5-difluorobenzyl)-2-(3-(4-fluorobenzyl)-4-methyl-2-oxoimidazolidin-1-yl)-4-methylthiazole-5-carboxamide] in this work.

A melting point of 149 to 151 °C was found for Cc1nc(-n2cnn(Cc3ccc(F)cc3)c2=O)sc1C(=O)NCc1cccc(N(C)C)c1 [Example 16.5, N-(3-(dimethylamino)benzyl)-2-(1-(4-fluorobenzyl)-5-oxo-1H-1,2,4-triazol-4(5H)-yl)-4-methylthiazole-5-carboxamide] in this work.

A melting point of 134 to 135 °C was found for Cc1nc(N2C[C@@H](C)N(Cc3ccc(F)cc3)C2=O)sc1C(=O)NCc1ccc(F)c(F)c1 [Example 2.6, (R)-N-(3,4-difluorobenzyl)-2-(3-(4-fluorobenzyl)-4-methyl-2-oxoimidazolidin-1-yl)-4-methylthiazole-5-carboxamide] in this work.

A melting point of 216 to 217 °C was found for Cc1nc(N2CCN(Cc3ccc(C(F)(F)F)cc3)C2=O)sc1C(N)=O [Example 1.2, 4-methyl-2-{2-oxo-3-[4-(trifluoromethyl)benzyl]imidazolidin-1-yl}thiazole-5-carboxamide] in this work.
